Results as given in BindingDB's records for patent US20230348426 (Bristol-Myers Squibb, 2023).

Tests used:
fMet-Leu-Phe receptor = target: T1, fMet-Leu-Phe receptor (Homo sapiens, UniProt P21462); test: FPR2 and FPR1 Cyclic Adenosine Monophosphate (cAMP) Assays
T1 sequence (P21462 whole entry): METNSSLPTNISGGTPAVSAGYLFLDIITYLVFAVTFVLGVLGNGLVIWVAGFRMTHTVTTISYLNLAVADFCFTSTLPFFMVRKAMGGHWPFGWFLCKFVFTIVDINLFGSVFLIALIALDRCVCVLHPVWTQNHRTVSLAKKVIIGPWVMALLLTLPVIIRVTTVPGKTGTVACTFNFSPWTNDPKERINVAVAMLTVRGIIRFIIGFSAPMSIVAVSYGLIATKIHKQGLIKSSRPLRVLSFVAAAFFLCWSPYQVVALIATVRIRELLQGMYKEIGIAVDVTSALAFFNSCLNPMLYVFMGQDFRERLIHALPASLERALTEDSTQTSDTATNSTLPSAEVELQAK
Procedure: (§1) A mixture of forskolin (5 M final for FPR2 or 10 M final for FPR1) and IBMX (200 M final) were added to 384-well Proxiplates (Perkin-Elmer) pre-dotted with test compounds in DMSO (1% final) at final concentrations in the range of 0.020 nM to 100 µM. Chinese Hamster Ovary cells (CHO) overexpressing human FPR1 or human FPR2 receptors were cultured in F-12 (Ham s) medium supplemented with 10% qualified FBS, 250 µg/ml zeocin and 300 µg/ml hygromycin (Life Technologies). Reactions were initiated by adding 2,000 human FPR2 cells per well or 4,000 human FPR1 cells per well in Dulbecco s PBS (with calcium and magnesium) (Life Technologies) supplemented with 0.1% BSA (Perkin-Elmer). The reaction mixtures were incubated for 30 min at room temperature. The level of intracellular cAMP was determined using the HTRF HiRange cAMP assay reagent kit (Cisbio) according to manufacturer s instruction. Solutions of cryptate conjugated anti-cAMP and d2 flurorophore-labelled cAMP were made in a supplied lysis buffer separately. Upon completion of the reaction, the cells were lysed with equal volume of the d2-cAMP solution and anti-cAMP solution. […] The potency and activity of a compound to inhibit cAMP production was then determined by fitting to a 4-parametric logistic equation from a plot of cAMP level versus compound concentrations.

[1] = target: T2, N-formyl peptide receptor 2 (Homo sapiens, UniProt P25090); test: as above
T2 sequence (P25090 whole entry): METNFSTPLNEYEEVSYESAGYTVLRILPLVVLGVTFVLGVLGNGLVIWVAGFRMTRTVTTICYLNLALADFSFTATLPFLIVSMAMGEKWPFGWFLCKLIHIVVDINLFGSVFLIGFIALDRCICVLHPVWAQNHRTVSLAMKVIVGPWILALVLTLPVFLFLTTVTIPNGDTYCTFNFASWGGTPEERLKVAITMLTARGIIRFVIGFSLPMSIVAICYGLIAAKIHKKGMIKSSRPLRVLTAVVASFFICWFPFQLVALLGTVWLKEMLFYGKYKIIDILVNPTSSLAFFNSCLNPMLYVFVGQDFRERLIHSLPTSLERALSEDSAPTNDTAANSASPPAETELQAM
Procedure: as §1

Compound | EC50 (fMet-Leu-Phe receptor) [nM] | EC50 [1] [nM]
COc1cc(F)c([C@@H]2CN(c3nc(N4CCCS4(=O)=O)ccc3F)C(=O)[C@H]2NC(=O)c2ccc(OC(F)(F)F)cc2)c(F)c1 [US20230348426, Example 289] | 62 | 8.6
COc1cc(F)c([C@@H]2CN(c3nc(N4CC(CO)OCC4=O)ccc3F)C(=O)[C@H]2NC(=O)c2ccc(OC(F)F)cc2)c(F)c1 (some centres not stated) [US20230348426, Example 331] | 5600 | 13
COc1cc(F)c([C@@H]2CN(c3c(C)ccn(C4CCN(C)C4)c3=O)C(=O)[C@H]2NC(=O)c2ccc(Cl)cc2)c(F)c1 (some centres not stated) [US20230348426, Example 510] | 290 | 3.5
COc1cc(C2CCN(C)CC2)nc(N2C(=O)[C@@H](NC(=O)c3ccc(Cl)cc3)[C@H](c3c(F)cc(OC)cc3F)[C@H]2C)c1 [US20230348426, Example 558] | 2000 | 6.4

Continued, values first:

EC50 (fMet-Leu-Phe receptor) [nM] | EC50 [1] [nM] | Compound
12 | 1.9 | COc1cc(F)c([C@@H]2CN(c3c(C)ccn(C4CCS(=O)(=O)CC4)c3=O)C(=O)[C@H]2NC(=O)c2ccc(Cl)cc2)c(F)c1 [US20230348426, Example 625]
5 | 7 | COc1cc(F)c([C@@H]2CN(c3c(C)ccn(CC(O)C4CC4)c3=O)C(=O)[C@H]2NC(=O)c2ccc(Cl)cc2)c(F)c1 (some centres not stated) [US20230348426, Example 684]
